From ChEMBL document CHEMBL3286106, “Design and synthesis of 6-oxo-1,4,5,6-tetrahydropyrimidine-5-carboxylate derivatives as neuraminidase inhibitors” (Eur J Med Chem, 2014)

What was measured:
[1] = target: Neuraminidase (Influenza A virus, UniProt B4URF0); test: Inhibition of Influenza A H1N1 virus neuraminidase after 1 hr by spectrofluorimetry using 2-(4-meythylumbelliferyl)-alpha-D-acetylneuramic acid as substrate
[2] = target: Neuraminidase (Influenza A virus) (UniProt B4URF0); test: Inhibition of Influenza A H1N1 virus neuraminidase at 1.6 uM after 1 hr by spectrofluorimetry using 2-(4-meythylumbelliferyl)-alpha-D-acetylneuramic acid as substrate
[3] = Cytotoxicity against human L02 cells after 48 hrs by MTT assay; format: cell-based; conditions: L02, 48 h
[4] = target: Neuraminidase (Influenza A virus) (UniProt B4URF0); test: Inhibition of Influenza A H1N1 virus neuraminidase at 200 uM after 1 hr by spectrofluorimetry using 2-(4-meythylumbelliferyl)-alpha-D-acetylneuramic acid as substrate
[5] = target: Neuraminidase (Influenza A virus) (UniProt B4URF0); test: Inhibition of Influenza A H1N1 virus neuraminidase at 8 uM after 1 hr by spectrofluorimetry using 2-(4-meythylumbelliferyl)-alpha-D-acetylneuramic acid as substrate
[6] = target: Neuraminidase (Influenza A virus) (UniProt B4URF0); test: Inhibition of Influenza A H1N1 virus neuraminidase at 40 uM after 1 hr by spectrofluorimetry using 2-(4-meythylumbelliferyl)-alpha-D-acetylneuramic acid as substrate
[7] = target: Neuraminidase (Influenza A virus) (UniProt B4URF0); test: Inhibition of Influenza A H1N1 virus neuraminidase at 4 nM after 1 hr by spectrofluorimetry using 2-(4-meythylumbelliferyl)-alpha-D-acetylneuramic acid as substrate
[8] = target: Neuraminidase (Influenza A virus) (UniProt B4URF0); test: Inhibition of Influenza A H1N1 virus neuraminidase at 0.8 nM after 1 hr by spectrofluorimetry using 2-(4-meythylumbelliferyl)-alpha-D-acetylneuramic acid as substrate
[9] = target: Neuraminidase (Influenza A virus) (UniProt B4URF0); test: Inhibition of Influenza A H1N1 virus neuraminidase at 20 nM after 1 hr by spectrofluorimetry using 2-(4-meythylumbelliferyl)-alpha-D-acetylneuramic acid as substrate
[10] = target: Neuraminidase (Influenza A virus) (UniProt B4URF0); test: Inhibition of Influenza A H1N1 virus neuraminidase at 100 nM after 1 hr by spectrofluorimetry using 2-(4-meythylumbelliferyl)-alpha-D-acetylneuramic acid as substrate
[11] = target: Neuraminidase (Influenza A virus) (UniProt B4URF0); test: Inhibition of Influenza A H1N1 virus neuraminidase at 0.16 nM after 1 hr by spectrofluorimetry using 2-(4-meythylumbelliferyl)-alpha-D-acetylneuramic acid as substrate

Sequence of Neuraminidase (Influenza A virus) (B4URF0 as listed by the source): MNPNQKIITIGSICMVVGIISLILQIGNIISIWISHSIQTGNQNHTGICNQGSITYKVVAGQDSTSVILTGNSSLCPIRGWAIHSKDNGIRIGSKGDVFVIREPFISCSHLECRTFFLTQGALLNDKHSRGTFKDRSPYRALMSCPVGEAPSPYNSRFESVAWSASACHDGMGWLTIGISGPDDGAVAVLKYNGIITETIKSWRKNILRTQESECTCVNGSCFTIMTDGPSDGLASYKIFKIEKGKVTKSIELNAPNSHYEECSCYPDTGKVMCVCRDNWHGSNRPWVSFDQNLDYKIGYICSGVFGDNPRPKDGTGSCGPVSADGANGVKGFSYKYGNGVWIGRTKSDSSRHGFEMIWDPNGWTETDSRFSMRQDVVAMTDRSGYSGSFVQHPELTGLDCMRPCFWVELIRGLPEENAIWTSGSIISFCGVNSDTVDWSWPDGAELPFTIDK
Sequence of Neuraminidase (B4URF0 whole entry): as the sequence (B4URF0 as listed by the source) above

CCOC(=O)C1C(=O)NC(NC(C)=O)=NC1c1ccc(F)cc1 (centres undefined)
IC50 [1]: 96.5 µM

CCOC(=O)C1C(=O)NC(NC(C)=O)=NC1c1ccc(OC)cc1 (centres undefined)
IC50 [1]: 166 µM

CCOC(=O)C1C(=O)NC(NC(C)=O)=NC1c1ccccc1[N+](=O)[O-] (centres undefined)
IC50 [1]: 17.6 µM
inhibition [2]: 8%
IC50 [3]: > 10000 µM
inhibition [4]: 82%
inhibition [5]: 25%
inhibition [6]: 53%

CCOC(=O)C1C(=O)NC(N)=NC1c1ccccc1Cl (centres undefined)
IC50 [1]: 86.9 µM

CCOC(=O)C1C(=O)NC(N)=NC1c1ccc(N(C)C)cc1 (centres undefined)
IC50 [1]: > 200 µM

CCOC(=O)C1C(=O)NC(N)=NC1c1ccc(C)cc1 (centres undefined)
IC50 [1]: > 200 µM

CCOC(=O)C1C(=O)NC(N)=NC1c1ccccc1F (centres undefined)
IC50 [1]: 89 µM

CCOC(=O)C1C(=O)NC(NC(C)=O)=NC1c1ccc(Br)cc1F (centres undefined)
IC50 [1]: 29.7 µM
inhibition [2]: 7%
IC50 [3]: > 10000 µM
inhibition [4]: 86%
inhibition [5]: 24%
inhibition [6]: 52%

CCOC(=O)C1C(=O)NC(NC(C)=O)=NC1c1ccc(OC)c(OC)c1 (centres undefined)
IC50 [1]: > 200 µM

CCOC(=O)C1C(=O)NC(NC(C)=O)=NC1c1ccc(Cl)cc1 (centres undefined)
IC50 [1]: 89.6 µM

CCOC(=O)C1C(=O)NC(N)=NC1c1ccc(Br)cc1F (centres undefined)
IC50 [1]: 121 µM

CCOC(=O)C1C(=O)NC(NC(C)=O)=NC1c1ccccc1 (centres undefined)
IC50 [1]: 57.5 µM

CCOC(=O)C1C(=O)NC(NC(C)=O)=NC1c1ccc(C)cc1 (centres undefined)
IC50 [1]: 165 µM

CCOC(=O)C1C(=O)NC(N)=NC1c1ccccc1 (centres undefined)
IC50 [1]: 129 µM

CCOC(=O)C1C(=O)NC(N)=NC1c1ccc([N+](=O)[O-])cc1 (centres undefined)
IC50 [1]: 189 µM

CCOC(=O)C1C(=O)NC(NC(C)=O)=NC1c1ccc(Br)cc1 (centres undefined)
IC50 [1]: 71.3 µM

CCOC(=O)C1C(=O)NC(NC(C)=O)=NC1C(C)C (centres undefined)
IC50 [1]: > 200 µM

CCOC(=O)C1C(=O)NC(N)=NC1C(C)C (centres undefined)
IC50 [1]: > 200 µM

CCOC(=O)C1C(=O)NC(NC(=O)CC)=NC1c1ccc(Br)cc1 (centres undefined)
IC50 [1]: 106 µM

CCOC(=O)C1C(=O)NC(N)=NC1c1ccc(OC)cc1 (centres undefined)
IC50 [1]: > 200 µM

CCOC(=O)C1C(=O)NC(NC(C)=O)=NC1c1ccc(Cl)cc1Cl (centres undefined)
IC50 [1]: 28.5 µM
inhibition [2]: 8%
IC50 [3]: > 10000 µM
inhibition [4]: 94%
inhibition [5]: 38%
inhibition [6]: 61%

CCOC(=O)C1C(=O)NC(N)=NC1c1ccc(Cl)cc1Cl (centres undefined)
IC50 [1]: 120 µM

CCOC(=O)C1C(=O)NC(NC(=O)C(F)(F)F)=NC1c1ccc(Br)cc1 (centres undefined)
IC50 [1]: 69.8 µM

CCOC(=O)C1C(=O)NC(NC(C)=O)=NC1c1ccc([N+](=O)[O-])cc1 (centres undefined)
IC50 [1]: 145 µM

CCOC(=O)C1C(=O)NC(N)=NC1c1ccc(Cl)cc1 (centres undefined)
IC50 [1]: 110 µM

CCOC(=O)C1C(=O)NC(N)=NC1c1ccco1 (centres undefined)
IC50 [1]: > 200 µM

CCOC(=O)C1C(=O)NC(N)=NC1c1ccc(F)cc1 (centres undefined)
IC50 [1]: 145 µM

CCOC(=O)C1C(=O)NC(NC(C)=O)=NC1c1ccco1 (centres undefined)
IC50 [1]: > 200 µM

CCOC(=O)C1C(=O)NC(NC(C)=O)=NC1c1ccccc1Cl (centres undefined)
IC50 [1]: 36.7 µM

CCOC(=O)C1C(=O)NC(N)=NC1c1ccc(OC)c(OC)c1 (centres undefined)
IC50 [1]: > 200 µM

CCOC(=O)C1C(=O)NC(N)=NC1c1ccc(Br)cc1 (centres undefined)
IC50 [1]: 125 µM

CCOC(=O)C1C(=O)NC(N)=NC1c1ccccc1[N+](=O)[O-] (centres undefined)
IC50 [1]: 75.7 µM

CCOC(=O)C1=C[C@@H](OC(CC)CC)[C@H](NC(C)=O)[C@@H](N)C1
inhibition [7]: 84%
inhibition [8]: 51%
inhibition [9]: 97%
inhibition [10]: 99%
inhibition [11]: 17%

CCOC(=O)C1C(=O)NC(NC(C)=O)=NC1c1ccccc1F (centres undefined)
IC50 [1]: 46.5 µM

CCOC(=O)C1C(=O)NC(NC(C)=O)=NC1c1ccc(N(C)C)cc1 (centres undefined)
IC50 [1]: 139 µM
